Holding throughout (assay): biochemical
Format in all cases: biochemical

In experiment [1] the target is 363 human kinases (including Aurora A/B/C) (Homo sapiens, UniProt Q14289). Conditions: PYK2; for remaining activity at 0.1 µM: 100 nM; for remaining activity at 0.1 µM / remaining activity at 0.5 µM: read-out: % Enzyme Activity (relative to DMSO controls).
Description: (§1) However, the Aurora A/B selectivity ratios derived from our in vitro and in vivo data can be compared to prioritize inhibitors.
Experiment [2] deals with 363 human kinases (including Aurora A/B/C) (Homo sapiens, UniProt Q96NX5). Conditions: CAMK1g, [ATP] 30 µM; for remaining activity at 0.1 µM: 100 nM; for remaining activity at 0.1 µM / remaining activity at 0.5 µM: read-out: % Enzyme Activity (relative to DMSO controls).
Description: as §1
Experiment [3] addresses T1, 363 human kinases (including Aurora A/B/C) (Homo sapiens, UniProt Q96PY6).
T1 sequence (Q96PY6 1-1258): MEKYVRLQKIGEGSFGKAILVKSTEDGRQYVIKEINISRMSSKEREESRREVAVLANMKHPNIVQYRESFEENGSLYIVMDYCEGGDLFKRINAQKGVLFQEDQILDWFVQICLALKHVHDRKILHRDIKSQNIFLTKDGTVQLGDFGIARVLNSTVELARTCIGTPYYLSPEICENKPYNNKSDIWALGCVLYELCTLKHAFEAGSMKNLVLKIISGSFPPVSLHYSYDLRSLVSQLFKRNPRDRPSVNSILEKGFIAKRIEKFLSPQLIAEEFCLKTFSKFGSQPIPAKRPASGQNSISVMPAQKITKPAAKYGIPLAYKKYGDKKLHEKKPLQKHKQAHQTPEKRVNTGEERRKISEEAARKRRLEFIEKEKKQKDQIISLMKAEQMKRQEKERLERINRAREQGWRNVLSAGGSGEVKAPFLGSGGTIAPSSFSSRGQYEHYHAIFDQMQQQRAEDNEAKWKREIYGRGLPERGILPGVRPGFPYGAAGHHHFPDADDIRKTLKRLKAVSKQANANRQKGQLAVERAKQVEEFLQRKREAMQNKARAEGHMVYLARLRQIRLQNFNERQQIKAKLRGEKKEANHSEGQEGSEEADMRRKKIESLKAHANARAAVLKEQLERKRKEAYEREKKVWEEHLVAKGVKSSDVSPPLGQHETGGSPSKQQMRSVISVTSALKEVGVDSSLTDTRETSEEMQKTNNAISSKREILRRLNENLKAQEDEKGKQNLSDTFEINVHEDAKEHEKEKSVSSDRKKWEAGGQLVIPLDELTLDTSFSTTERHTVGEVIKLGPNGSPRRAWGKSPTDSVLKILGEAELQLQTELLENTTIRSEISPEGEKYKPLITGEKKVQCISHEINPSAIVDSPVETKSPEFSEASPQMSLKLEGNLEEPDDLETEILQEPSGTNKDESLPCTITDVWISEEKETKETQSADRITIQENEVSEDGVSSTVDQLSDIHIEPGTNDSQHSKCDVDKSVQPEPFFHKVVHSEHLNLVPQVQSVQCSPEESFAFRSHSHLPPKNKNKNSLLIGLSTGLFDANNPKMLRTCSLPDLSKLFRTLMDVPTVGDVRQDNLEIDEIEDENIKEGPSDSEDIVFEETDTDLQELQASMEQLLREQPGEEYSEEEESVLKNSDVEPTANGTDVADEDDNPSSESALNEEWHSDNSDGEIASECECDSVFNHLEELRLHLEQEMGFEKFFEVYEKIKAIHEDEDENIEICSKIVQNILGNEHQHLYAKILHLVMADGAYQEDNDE
Conditions: NEK1; for remaining activity at 0.1 µM: 100 nM; for remaining activity at 0.1 µM / remaining activity at 0.5 µM: read-out: % Enzyme Activity (relative to DMSO controls).
Description: as §1

Experiment [4] deals with T2, 363 human kinases (including Aurora A/B/C) (Homo sapiens, UniProt Q8WTQ7).
T2 sequence (Q8WTQ7 1-553): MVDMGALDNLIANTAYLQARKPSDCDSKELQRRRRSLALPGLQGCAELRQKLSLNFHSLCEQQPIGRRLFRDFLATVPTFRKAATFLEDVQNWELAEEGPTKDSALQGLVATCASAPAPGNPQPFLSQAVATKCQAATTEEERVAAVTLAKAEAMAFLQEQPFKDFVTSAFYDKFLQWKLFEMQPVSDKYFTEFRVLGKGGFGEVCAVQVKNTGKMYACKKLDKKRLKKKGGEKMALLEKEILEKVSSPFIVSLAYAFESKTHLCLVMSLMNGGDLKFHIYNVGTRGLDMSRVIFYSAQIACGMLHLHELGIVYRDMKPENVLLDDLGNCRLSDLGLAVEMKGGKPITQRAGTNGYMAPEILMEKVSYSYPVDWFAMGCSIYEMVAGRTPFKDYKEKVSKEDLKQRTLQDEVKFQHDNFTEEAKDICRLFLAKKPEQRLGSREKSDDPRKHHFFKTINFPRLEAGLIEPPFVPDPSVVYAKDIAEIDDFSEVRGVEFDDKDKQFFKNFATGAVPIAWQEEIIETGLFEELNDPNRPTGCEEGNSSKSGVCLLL
Conditions: GRK7; for remaining activity at 0.1 µM: 100 nM; for remaining activity at 0.1 µM / remaining activity at 0.5 µM: read-out: % Enzyme Activity (relative to DMSO controls).
Description: as §1

The target of experiment [5] is T3, 363 human kinases (including Aurora A/B/C) (Homo sapiens, UniProt Q8TDC3).
T3 sequence (Q8TDC3 1-778): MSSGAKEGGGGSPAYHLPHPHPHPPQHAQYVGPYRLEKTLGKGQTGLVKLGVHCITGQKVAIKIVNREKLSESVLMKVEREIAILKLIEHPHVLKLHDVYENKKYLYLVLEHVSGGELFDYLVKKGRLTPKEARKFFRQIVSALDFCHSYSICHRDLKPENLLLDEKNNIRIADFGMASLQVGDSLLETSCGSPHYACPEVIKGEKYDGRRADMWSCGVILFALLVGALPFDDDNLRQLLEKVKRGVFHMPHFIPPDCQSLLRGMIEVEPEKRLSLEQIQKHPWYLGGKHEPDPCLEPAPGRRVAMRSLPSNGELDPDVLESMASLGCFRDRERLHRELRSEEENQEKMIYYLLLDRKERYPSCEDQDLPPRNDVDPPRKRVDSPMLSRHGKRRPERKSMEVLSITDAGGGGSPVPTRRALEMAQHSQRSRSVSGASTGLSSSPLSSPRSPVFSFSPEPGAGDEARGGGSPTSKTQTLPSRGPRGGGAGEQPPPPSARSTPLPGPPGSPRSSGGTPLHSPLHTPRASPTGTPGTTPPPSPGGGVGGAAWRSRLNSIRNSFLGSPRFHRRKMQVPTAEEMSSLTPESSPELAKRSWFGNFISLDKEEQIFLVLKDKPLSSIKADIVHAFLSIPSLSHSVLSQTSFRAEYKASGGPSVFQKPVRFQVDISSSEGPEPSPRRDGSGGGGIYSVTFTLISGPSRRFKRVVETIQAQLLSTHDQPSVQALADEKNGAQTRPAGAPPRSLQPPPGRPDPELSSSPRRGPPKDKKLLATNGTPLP
The conditions noted are these: BRSK1, [ATP] 50 µM; for remaining activity at 0.1 µM: 100 nM; for remaining activity at 0.1 µM / remaining activity at 0.5 µM: read-out: % Enzyme Activity (relative to DMSO controls).
Description: as §1

Experiment [6] has as its target 363 human kinases (including Aurora A/B/C) (Homo sapiens, UniProt O75460). Conditions: ERN1/IRE1, [ATP] 30 µM; for remaining activity at 0.1 µM: 100 nM; for remaining activity at 0.1 µM / remaining activity at 0.5 µM: read-out: % Enzyme Activity (relative to DMSO controls).
Description: as §1

Chain of 363 human kinases (including Aurora A/B/C) (Homo sapiens, UniProt O75460) (O75460 19-977): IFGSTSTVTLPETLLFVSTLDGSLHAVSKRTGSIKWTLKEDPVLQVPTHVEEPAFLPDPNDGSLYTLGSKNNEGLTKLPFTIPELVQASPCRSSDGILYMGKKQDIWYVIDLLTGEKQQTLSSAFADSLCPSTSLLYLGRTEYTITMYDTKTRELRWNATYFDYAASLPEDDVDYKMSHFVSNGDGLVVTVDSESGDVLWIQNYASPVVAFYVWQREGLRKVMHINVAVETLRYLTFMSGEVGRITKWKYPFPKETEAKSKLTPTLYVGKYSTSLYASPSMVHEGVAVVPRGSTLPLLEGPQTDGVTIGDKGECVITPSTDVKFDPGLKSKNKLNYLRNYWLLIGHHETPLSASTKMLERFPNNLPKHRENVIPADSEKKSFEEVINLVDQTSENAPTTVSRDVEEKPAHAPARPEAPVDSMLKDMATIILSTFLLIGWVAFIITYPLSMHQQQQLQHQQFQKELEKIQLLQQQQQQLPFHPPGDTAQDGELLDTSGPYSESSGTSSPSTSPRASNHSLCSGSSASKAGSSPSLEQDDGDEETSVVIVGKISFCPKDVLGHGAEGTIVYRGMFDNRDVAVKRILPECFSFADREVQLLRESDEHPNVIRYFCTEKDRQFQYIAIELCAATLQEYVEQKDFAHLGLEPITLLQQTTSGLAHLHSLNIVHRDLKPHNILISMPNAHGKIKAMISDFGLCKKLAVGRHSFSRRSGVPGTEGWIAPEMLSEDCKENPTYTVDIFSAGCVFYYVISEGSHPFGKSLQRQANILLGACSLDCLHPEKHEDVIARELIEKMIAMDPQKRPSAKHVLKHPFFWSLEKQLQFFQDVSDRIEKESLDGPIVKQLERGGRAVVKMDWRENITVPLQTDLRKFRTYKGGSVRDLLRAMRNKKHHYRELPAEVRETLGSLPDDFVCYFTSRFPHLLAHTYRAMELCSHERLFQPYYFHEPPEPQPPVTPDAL
Chain of 363 human kinases (including Aurora A/B/C) (Homo sapiens, UniProt Q14289) (Q14289 whole entry): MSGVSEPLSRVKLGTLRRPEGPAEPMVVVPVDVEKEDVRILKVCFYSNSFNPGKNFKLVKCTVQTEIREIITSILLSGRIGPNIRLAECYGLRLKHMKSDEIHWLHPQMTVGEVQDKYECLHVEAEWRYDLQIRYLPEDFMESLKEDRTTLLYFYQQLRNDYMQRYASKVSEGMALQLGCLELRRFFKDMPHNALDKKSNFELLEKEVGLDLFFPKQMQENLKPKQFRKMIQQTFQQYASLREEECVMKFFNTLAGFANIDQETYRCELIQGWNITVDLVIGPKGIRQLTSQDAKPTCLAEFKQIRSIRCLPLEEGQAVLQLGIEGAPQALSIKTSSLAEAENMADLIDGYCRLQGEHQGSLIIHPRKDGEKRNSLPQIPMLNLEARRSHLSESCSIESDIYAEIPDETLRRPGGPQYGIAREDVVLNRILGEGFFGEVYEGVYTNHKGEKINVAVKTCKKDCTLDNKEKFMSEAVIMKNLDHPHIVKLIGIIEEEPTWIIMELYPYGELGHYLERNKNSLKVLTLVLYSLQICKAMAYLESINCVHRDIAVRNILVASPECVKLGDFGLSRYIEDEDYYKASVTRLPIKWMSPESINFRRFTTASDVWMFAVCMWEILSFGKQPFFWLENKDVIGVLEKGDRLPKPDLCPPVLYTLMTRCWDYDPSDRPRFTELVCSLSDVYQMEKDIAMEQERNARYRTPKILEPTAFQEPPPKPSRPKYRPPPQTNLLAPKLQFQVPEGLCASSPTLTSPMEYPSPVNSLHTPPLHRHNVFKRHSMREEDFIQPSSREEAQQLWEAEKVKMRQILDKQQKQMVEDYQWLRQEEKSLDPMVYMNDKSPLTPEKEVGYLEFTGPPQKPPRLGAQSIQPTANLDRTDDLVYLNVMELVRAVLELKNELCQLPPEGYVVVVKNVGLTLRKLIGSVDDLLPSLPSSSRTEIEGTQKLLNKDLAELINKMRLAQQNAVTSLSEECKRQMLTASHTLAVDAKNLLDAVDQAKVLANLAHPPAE
Chain of 363 human kinases (including Aurora A/B/C) (Homo sapiens, UniProt Q96NX5) (Q96NX5 whole entry): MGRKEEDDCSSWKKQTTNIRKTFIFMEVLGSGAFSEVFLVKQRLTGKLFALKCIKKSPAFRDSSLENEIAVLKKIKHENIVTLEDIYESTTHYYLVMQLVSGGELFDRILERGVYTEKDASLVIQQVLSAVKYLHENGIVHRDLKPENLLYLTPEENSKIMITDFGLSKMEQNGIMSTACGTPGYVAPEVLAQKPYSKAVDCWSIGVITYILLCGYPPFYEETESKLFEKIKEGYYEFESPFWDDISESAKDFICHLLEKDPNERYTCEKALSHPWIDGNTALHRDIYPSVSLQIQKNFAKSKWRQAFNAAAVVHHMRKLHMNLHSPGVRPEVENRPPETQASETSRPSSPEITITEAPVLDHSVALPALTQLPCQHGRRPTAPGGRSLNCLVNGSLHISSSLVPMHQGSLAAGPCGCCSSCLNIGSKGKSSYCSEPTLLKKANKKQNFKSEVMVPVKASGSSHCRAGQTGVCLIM

Consider `CCn1cc(-c2ccnc3[nH]c(-c4cccc(CN(C)C)c4)cc23)c(-c2ccc(NC(=O)N(C)C)cc2)n1` [GSK1070916], for which the remaining activity at 0.1 µM in experiment [1] turned out to be 95.3%; in experiment [2], 96.3%; in experiment [3] it was 101%; in experiment [4], 100%; in experiment [5], 85.9%; in experiment [6], 95.9%.

For `O=C(O)[C@]1(Cc2cccc(Nc3nccs3)n2)CC[C@@H](Oc2cccc(Cl)c2F)CC1` [MK-5108], the remaining activity at 0.1 µM in experiment [1] came out at 41.2%; in experiment [2], 100%; in experiment [3], 101%; in experiment [4] it was 98.7%; in experiment [5], 95.8%; in experiment [6], 106%. In addition, the remaining activity at 0.5 µM was found to be 16.4% in experiment [1] (500 nM); 93.7% in experiment [2] (500 nM); 103% in experiment [3] (500 nM); 94.2% in experiment [4] (500 nM); 82.2% in experiment [5] (500 nM); 88.8% in experiment [6] (500 nM).

In the case of `O=C(c1cccc(Cl)c1F)N1CCN(Cc2cccc(Nc3nccs3)n2)CC1` [MK-8745], the “% Enzyme Activity (relative to DMSO controls)” value in experiment [1] (500 nM) amounted to 80.17%; in experiment [2] (500 nM), 91.44%; in experiment [3] (500 nM) it was 94.59%; in experiment [4] (500 nM), 97.48%; in experiment [5] (500 nM), 97.71%; in experiment [6] (500 nM), 88.65%. Besides, the remaining activity at 0.5 µM in experiment [1] (500 nM) was determined as 83.5%; in experiment [2] (500 nM), 91.9%; in experiment [3] (500 nM) it was 97.9%; in experiment [4] (500 nM), 101%; in experiment [5] (500 nM), 98.2%; in experiment [6] (500 nM), 89.3%.
